In data set [1] the test system is Aβ in extract of tissue from post mortem human AD brain. The experiment in a line: Human brain amyloid solubilisation assay (Assay 9, BAS). It counts as biochemical. Conditions: solubilising plaques relative to PBS. A digest of the protocol: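 Plaque-bearing post mortem AD cortex homogenised in ice-cold PBS pH 7.4 and spun 100,000×g, 30 min to separate PBS-soluble supernatant from insoluble pellet. Aβ in each fraction resolved on Tris-Tricine 10-20% gels, immunoblotted with W02 antibody and ECL, quantified by densitometry against synthetic Aβ40 standards (0.5, 1, 2 ng).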

The subject of the next data set is APP2576 transgenic mouse. The experiment in a line: Transgenic mouse brain immunohistochemistry, plaque abundance (Assay 15). It counts as in vivo. Conditions: for % difference from control (sham treated animal): plaque score; for Mean plaque score: scale 0 to 4. From the text: Assay 15. Transgenic Mouse Brain Immunohistochemistry
The APP2576 transgenic mouse (Hsiao et al., 1996) as referred to in Assay 11 were utilized in this assay. The contralateral formalin-fixed mouse brain tissue was coronally cut. Sections (10 μm) were taken from the corresponding sites and treated with 80% formic acid for antigen retrieval. The primary antibody used was monoclonal antibody 1E8, which recognizes epitopes between residues 18 and 22 of Aβ (SmithKline Beecham, UK). Immunoreactivity was developed with secondary antibody linked to horseradish peroxidase (using a 3,39-diaminobenzidinechromagen) (Dako) and alkaline phosphatase (using 5-bromo-4-chloro 3-indoxyl phosphate and nitroblue tetrazolium chloride chromagen) (Dako). Plaque abundance per section was assessed by two operators blinded to treatment according to the following scale:
1=plaques present but very sparse
2=several plaques present
3=numerous plaques visible in restricted areas
4=plaques abundant and not restricted to any particular area.
Intermediate values eg 2.5 were assigned where applicable.
Students' t ‘test was used for comparisons between groups.

A short description of data set [2]: E Log D, chromatographic method (Assay 13). Conditions: SUPELCOSIL LC-ABZ column with octanol saturated mobile phase, pH 7.4; read-out: E Log D7.4. It counts as physicochemical. How it is done:
Effective Log D values were measured using a chromatographic method employing a SUPELCOSIL LC-ABZ column using an octanol saturated mobile phase at pH 7.4.

The nature of data set [3]: Turbidimetric solubility measurements (Assay 13). To be noted: kinetic from dmso stock, 1% DMSO, nephelometry. The class given is physicochemical. How it is done: Turbidimetric Solubility Measurements
The solubility estimate was measured at both pH 2.0 and pH 6.5. This is within the pH range that can be anticipated along the proximal gastrointestinal tract in humans.
The compounds were dissolved in DMSO to appropriate concentrations and then spiked into either 0.01M HCl (approx. pH=2.0) or pH 6.5 isotonic phosphate buffer, the final DMSO concentration being 1%. Samples were then analysed via Nephelometry to determine a solubility range. [as per D. Bevan and R. S. Lloyd, Anal. Chem. 2000, 72, 1781-1787].

[4] abbreviates: aqueous buffer, pH 6.5 isotonic phosphate buffer, read-out: Solubility pH 6.5.
Where [5] appears, read: simulated gastric fluid, 0.01M HCl (approx. pH 2.0), read-out: Solubility (μg/mL) 0.01M HCl.

The structures appear in SMILES notation. Values after ≈ are worked out from the molar mass of the structure shown. Read-outs that look alike come from different tables or passages of the source.

For `CN(C)Cc1ccc2c(Cl)cc(Cl)c(O)c2n1.Cl` [compound 1033, 5,7-Dichloro-2-dimethylaminomethyl-quinolin-8-ol hydrochloride], the “BAS Score” value in data set [1] is listed as “+”. In the data set on APP2576 transgenic mouse, the “% difference from control (sham treated animal)” value (from here on “% difference from control”) is listed as −41%. In the data set with APP2576 transgenic mouse, this compound registered a Mean plaque score of 2.06. Further, in data set [2], the chromatographic logD came to 1.32. Also, the solubility in data set [3] (setting [4]) is 3.1 to 6.2 µg/mL; in data set [3] (setting [5]), below 3.1 µg/mL.
On to `O=C(NCCc1c[nH]cn1)c1ccc2c(Cl)cc(Cl)c(O)c2n1` [compound 1038, 5,7-Dichloro-8-hydroxyquinoline-2-carboxylic acid [2-(1H-imidazol-4-yl)-ethyl]-amide], for which the “BAS Score” value in data set [1] is listed as “+”. The “% difference from control” value in the data set on APP2576 transgenic mouse is on record as −17%. For the same compound, the Mean plaque score in the data set on APP2576 transgenic mouse was 3.0. For the same compound, the chromatographic logD in data set [2] was 2.92. The solubility in data set [3] (setting [4]) was 12.5 to 25 µg/mL (≈ 35.6 to 71.2 µM); in data set [3] (setting [5]), 3.1 to 6.2 µg/mL (≈ 8.83 to 17.7 µM).
`Cn1cnc(CCNC(=O)c2ccc3c(Cl)cc(Cl)c(O)c3n2)c1` [compound 1050, 5,7-dichloro-8-hydroxyquinoline-2-carboxylic acid [2-(1-methyl-1H-imidazol-4-yl)-ethyl]-amide]: the chromatographic logD in data set [2] amounted to 2.98. In addition, the solubility was 12.5 to 25 µg/mL (≈ 34.2 to 68.5 µM) in data set [3] (setting [4]) and 25 to 50 µg/mL (≈ 68.5 to 137 µM) in data set [3] (setting [5]).
As for `CCNCc1ccc2c(Cl)cc(Cl)c(O)c2n1.Cl` [compound 1051, 5,7-dichloro-2-ethylaminomethyl-quinolin-8-ol hydrochloride], in data set [1], the “BAS Score” value is on record as “+”. Further, in the data set on APP2576 transgenic mouse, the “% difference from control” value is recorded as −39% and the Mean plaque score is reported as 2.13. The chromatographic logD in data set [2] stood at 2.64. For the same compound, the solubility in data set [3] (setting [4]) is below 3.1 µg/mL. The solubility in data set [3] (setting [5]) was below 3.1 µg/mL.

Values taken from patent publication US9302993B2, “8-hydroxy quinoline derivatives” (PRANA BIOTECHNOLOGY LIMITED, priority 2002, dated 2016).
